# Source: patent US20150297629A1, “MODULATION OF RENIN-ANGIOTENSIN SYSTEM (RAS) RELATED DISEASES BY ANGIOTENSINOGEN” (Isis Pharmaceuticals, Inc,, priority 2012, published 2015)
# What was measured:
# renin mRNA = test: Real-time PCR of kidney renin mRNA in SHR, Study 3; assay type: in vivo, Spontaneously hypertensive (SHR) rats; conditions: 3 weeks
# Procedure: A control group of SHR was injected with phosphate buffered saline (PBS) administered weekly for 3 weeks. Another control group of SHR was injected with 100 mg/kg/week of a control oligonucleotide (a nucleotide not targeted to angiotensinogen) administered for 3 weeks. […] RNA was extracted from kidney tissue for real-time PCR analysis of renin, using primer probe set rRenin2 (forward sequence [NT], designated herein as SEQ ID NO: 21; reverse sequence [NT], designated herein as SEQ ID NO: 22; probe sequence [NT], designated herein as SEQ ID NO: 23). The mRNA levels were normalized using the housekeeping gene, GAPDH. […] Increase in renin in the body is deleterious to the overall health of the animal (Nguyen and Muller, The Biology of the (Pro)Renin Receptor, J Am Soc Nephrol, 2010 January, 21(1):18-23). […] Results are presented as percent expression of renin, relative to control.
# angiotensinogen protein = test: ELISA of angiotensinogen plasma levels in SHR, Study 3; assay type: in vivo, Spontaneously hypertensive (SHR) rats; conditions: 3 weeks, oligonucleotides 100 mg/kg/week, Captopril 150 mg/kg/day
# Procedure: (§1) A group of SHR was injected with 100 mg/kg/week of ISIS 552668 administered for 3 weeks. A control group of SHR was injected with phosphate buffered saline (PBS) administered weekly for 3 weeks. Another control group of SHR was injected with 100 mg/kg/week of a control oligonucleotide (a nucleotide not targeted to angiotensinogen) administered for 3 weeks.
# Angiotensinogen plasma levels were measured by ELISA (IBL International, Toronto, Canada). […] Results are presented as percent inhibition of angiotensinogen, relative to PBS control.
# SHR [1] = test: Systolic blood pressure by tail-cuff method in SHR before and after ISIS 552668 added to chronic Captopril, Study 4; assay type: in vivo, Spontaneously hypertensive (SHR) rats; conditions: for Blood pressure (SBP), After ISIS 552668 dosing: then 50 mg/kg ISIS 552668 added
# female SHR rats = test: Blood pressure by tail-cuff method in female SHR rats with subsequent Captopril, Study 2; assay type: in vivo, Spontaneously hypertensive (SHR) rats; conditions: Captopril 50 mg/kg/day for 4 days, no ASO
# Procedure: A control group of female SHR rats was injected with phosphate buffered saline (PBS) administered weekly for 2 weeks. Another control group constituted a group of wild-type rats injected with phosphate buffered saline (PBS) administered weekly for 2 weeks. […] Systolic blood pressure (SBP), mean arterial pressure (MAP), and diastolic blood pressure (DBP) in the rats was measured by the tail-cuff volume-pressure method (Kent Scientific, Torrington, Conn.).
# Dahl/SS rats = test: Blood pressure by tail-cuff method in Dahl/SS rats; assay type: in vivo, Dahl/Salt Sensititive (Dahl/SS) rats; conditions: female Dahl/SS rats, 8% NaCl diet; 3 weeks; ISIS oligonucleotides 40 mg/kg/week, Captopril 150 mg/kg daily
# Procedure: The rats were fed a diet with 8% NaCl. A group of female Dahl/SS rats was injected with 40 mg/kg/week of ISIS 552668 administered for 3 weeks. A group of female Dahl/SS rats was injected with 40 mg/kg/week of control oligonucleotides ISIS 141923 administered for 3 weeks. […] A control group of female Dahl/SS rats was injected with phosphate buffered saline (PBS) administered weekly for 3 weeks. Another control group constituted a group of Dahl/Salt Resistant (Dahl/SR) rats injected with phosphate buffered saline (PBS) administered weekly for 3 weeks.
# Systolic blood pressure (SBP), mean arterial pressure (MAP), and diastolic blood pressure (DBP) in the rats was measured by the tail-cuff volume-pressure method (Kent Scientific). The results are presented in Table 12, expressed as the percent decrease in blood pressure compared to the control SHR group.
# SHR [2] = test: Mean arterial pressure by tail-cuff method in SHR, Study 3; assay type: in vivo, Spontaneously hypertensive (SHR) rats; conditions: ISIS 552668 and control oligonucleotide 100 mg/kg/week, Captopril 150 mg/kg/day
# Procedure: A control group of SHR was injected with phosphate buffered saline (PBS) administered weekly for 3 weeks. Another control group of SHR was injected with 100 mg/kg/week of a control oligonucleotide (a nucleotide not targeted to angiotensinogen) administered for 3 weeks. […] Mean arterial pressure (MAP) in the rats was measured by the tail-cuff volume-pressure method (Kent Scientific, Torrington, Conn.).
# angiotensinogen mRNA = test: Real-time PCR of angiotensinogen mRNA in SHR tissues, Study 3; assay type: in vivo, Spontaneously hypertensive (SHR) rats; conditions: 3 weeks, oligonucleotides 100 mg/kg/week, Captopril 150 mg/kg/day
# Procedure: as §1
# […] The mRNA levels were normalized using the housekeeping gene, GAPDH. […] Results are presented as percent inhibition of angiotensinogen, relative to control.
# [3] = Captopril 25 mg/kg/day for 10 weeks
# [4] = Captopril 50 mg/kg/day for 10 weeks
# [5] = Captopril 100 mg/kg/day for 10 weeks
structure (smiles),measurement,setting,value
"C[C@H](CS)C(=O)N1CCC[C@H]1C(=O)O [Captopril, reference compound]",Induction of kidney renin expression compared to that with ISIS 552668,renin mRNA; Captopril 150 mg/kg/day versus ISIS 552668 100 mg/kg/week,about three-fold
same,Percent increase of kidney renin mRNA,"renin mRNA; oligonucleotides 100 mg/kg/week, Captopril 150 mg/kg/day, PBS = 100",1110%
same,Percent inhibition of angiotensinogen protein in the plasma compared to the PBS control,angiotensinogen protein,24%
same,"Blood pressure (SBP), Before ISIS 552668 dosing",SHR [1]; [3],159
same,"Blood pressure (SBP), After ISIS 552668 dosing",SHR [1]; [3],153
same,"Blood pressure (SBP), Before ISIS 552668 dosing",SHR [1]; [4],147
same,"Blood pressure (SBP), After ISIS 552668 dosing",SHR [1]; [4],133
same,"Blood pressure (SBP), Before ISIS 552668 dosing",SHR [1]; [5],137
same,"Blood pressure (SBP), After ISIS 552668 dosing",SHR [1]; [5],127
same,"Blood pressure (SBP), Before ISIS 552668 dosing",SHR [1]; Captopril 200 mg/kg/day for 10 weeks,135
same,DBP,female SHR rats,97 mm Hg
same,MAP,female SHR rats,113 mm Hg
same,SBP,female SHR rats,145 mm Hg
same,DBP,Dahl/SS rats,111 mm Hg
same,MAP,Dahl/SS rats,128 mm Hg
same,SBP,Dahl/SS rats,162 mm Hg
same,"MAP, Week 1",SHR [2],107 mm Hg
same,"MAP, Week 2",SHR [2],109 mm Hg
same,"MAP, Week 3",SHR [2],112 mm Hg
same,"Percent inhibition of angiotensinogen mRNA compared to the PBS control, Heart",angiotensinogen mRNA,0%
same,"Percent inhibition of angiotensinogen mRNA compared to the PBS control, Kidney",angiotensinogen mRNA,41%
same,"Percent inhibition of angiotensinogen mRNA compared to the PBS control, Liver",angiotensinogen mRNA,0%
